Experimental data as given in patent publication US20090258097A1, “EXTRACTS AND COMPOUNDS FROM "AGAPANTHUS AFRICANUS" AND THEIR USE AS BIOLOGICAL PLANT PROTECTING AGENTS” (AGRARFORUM AG, priority 2005, published 2009).

Legend:
Sporisorium sorghi = experiment: Sorghum covered kernel smut field trial (seed treatment); assay type: in vivo; settings: extract 2.0 g/l, Thiram 0.25% (w/w)
Sporisorium cruentum = experiment: Sorghum loose kernel smut field trial (seed treatment); assay type: in vivo; settings: extract 2.0 g/l, Thiram 0.25% (w/w)
Fusarium oxysporum = experiment: In vitro mycelial growth inhibition (agar dilution); assay type: cell-based; settings: for concentration showing strong antifungal activity: purified compounds
[1] = pure compounds from the most active P-TLC root fraction, following acidification

Compound	% mean smut incidence (Sporisorium sorghi)	Yield (ton ha^−1) (Sporisorium sorghi)	% mean smut incidence (Sporisorium cruentum)	Yield (ton ha^−1) (Sporisorium cruentum)	% mycelial growth inhibition of F. oxysporum (Fusarium oxysporum; [1])	concentration showing strong antifungal activity (Fusarium oxysporum)	% mycelial growth inhibition of F. oxysporum (Fusarium oxysporum; pure compound from the most active P-TLC aerial plant part fraction)
CN(C)C(=S)SSC(=S)N(C)C [Thiram]	0b %	2.6ab ton ha^−1	0b %	2.1ab ton ha^−1			
CC(=O)Oc1cc(OC(C)=O)c2c(c1)OC(c1ccc(OC(C)=O)c(OC(C)=O)c1)CC2=O (centres unmarked) [Compound 8, 5,7,3′4′-tetra-O-acetylflavanone]					93%	about 625 μg/ml	
CC(=O)Oc1ccc(/C=C/C(=O)c2ccc(OC(C)=O)cc2OC(C)=O)cc1 [Compound 9, trans-4,2′,4′-Tri-O-acetylchalcone]					97%	about 625 μg/ml	
3-[{O-β-D-glucopyranosyl-(1″-3′)-α-L-rhamnosyl-(1″-2′)}-β-D-glucopyranosyloxy]agapanthegenin [Compound 1]					100%	approximately 125 μg/ml	100%
